# Assay results as given in patent US20250230193A1, “CYCLIC COMPOUND HAVING SELECTIVE KRAS INHIBITORY EFFECT ON HRAS AND NRAS” (CHUGAI SEIYAKU KABUSHIKI KAISHA, priority 2022, published 2025).
# Assays:
# [1] = molecular target: GDP-bound HRAS wild-type protein (Homo sapiens, UniProt P01112); assay: Binding to HRAS by surface plasmon resonance (SPR), Single Cycle Kinetics; details: KD ratio, GDP-bound HRAS wild-type vs GDP-bound KRAS wild-type, SPR
# [2] = molecular target: GDP-bound NRAS wild-type protein (Homo sapiens, UniProt P01111); assay: Binding to NRAS by surface plasmon resonance (SPR), Single Cycle Kinetics; details: KD ratio, GDP-bound NRAS wild-type vs GDP-bound KRAS wild-type, SPR
# GDP-bound NRAS wild-type protein, sequence (P01111 whole entry): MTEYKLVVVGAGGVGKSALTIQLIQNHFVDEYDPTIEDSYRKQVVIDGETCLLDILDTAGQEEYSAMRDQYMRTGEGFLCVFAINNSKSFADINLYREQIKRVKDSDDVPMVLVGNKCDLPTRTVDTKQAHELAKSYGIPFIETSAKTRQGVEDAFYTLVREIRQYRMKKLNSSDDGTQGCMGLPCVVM
# GDP-bound HRAS wild-type protein, sequence (P01112 whole entry): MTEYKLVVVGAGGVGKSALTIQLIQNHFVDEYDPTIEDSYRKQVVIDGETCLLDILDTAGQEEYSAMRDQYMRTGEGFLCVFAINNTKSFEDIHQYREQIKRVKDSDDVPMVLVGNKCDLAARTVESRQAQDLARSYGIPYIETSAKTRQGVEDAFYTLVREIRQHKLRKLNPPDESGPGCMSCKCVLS
Compound,HRAS/KRAS (ratio of KD value with respect to HRAS to KD value with respect to KRAS) [1],NRAS/KRAS (ratio of KD value with respect to NRAS to KD value with respect to KRAS) [2]
CC[C@H](C)[C@@H]1NC(=O)[C@H](CC(C)C)N(C)C(=O)C[C@@H](C(=O)N2CCOCC2)N(CC)C(=O)[C@H](C2CCCC2)N(C)C(=O)C2(CCC2)NC(=O)[C@@H]2[C@H](O)CCN2C(=O)[C@H](CCc2cc(F)c(C(F)(F)F)c(F)c2)NC(=O)CN(C)C(=O)[C@H](Cc2ccc(C(F)(F)F)cc2)N2CCCCC[C@@H](C2=O)N(C)C(=O)CN(C)C1=O [PP0955],A (a compound having 10 or more and less than 20 is denoted as A),A (a compound having 10 or more and less than 20 is denoted as A)
CCO[C@@H]1C[C@H]2C(=O)NC3(CC=CC3)C(=O)N(C)[C@@H](C3CCCC3)C(=O)N(CC)[C@H](C(=O)N3CCOCC3)CC(=O)N(C)[C@@H](CC(C)C)C(=O)N[C@@H]([C@@H](C)CC)C(=O)N(C)CC(=O)N(C)[C@H]3CCCCCN(C3=O)[C@@H](Cc3ccc(C(F)(F)F)cc3)C(=O)N(C)CC(=O)N[C@@H](CCc3cc(F)c(C(F)(F)F)c(F)c3)C(=O)N2C1 [PP0956],A (a compound having 10 or more and less than 20 is denoted as A),A (a compound having 10 or more and less than 20 is denoted as A)
CCO[C@@H]1C[C@H]2C(=O)NC(C)(C)C(=O)N(C)[C@@H](C3CCCC3)C(=O)N(CC)[C@H](C(=O)N3CCOCC3)CC(=O)N(C)[C@@H](CC(C)C)C(=O)N[C@@H]([C@@H](C)CC)C(=O)N(C)CC(=O)N(C)[C@H]3CCCCCN(C3=O)[C@@H](Cc3ccc(C(F)(F)F)cc3)C(=O)N(C)CC(=O)N[C@@H](CCc3cc(F)c(C(F)(F)F)c(F)c3)C(=O)N2C1 [PP0958],B (a compound having 3 or more and less than 10 is denoted as B),B (a compound having 3 or more and less than 10 is denoted as B)
CC[C@H](C)[C@@H]1NC(=O)[C@H](CC)N(C)C(=O)C[C@@H](C(=O)N2CCOCC2)N(C)C(=O)[C@H](C2CCCC2)N(C)C(=O)C2(CCCC2)NC(=O)[C@@H]2CCCN2C(=O)[C@H](CCc2ccc(C(F)(F)F)c(Cl)c2)NC(=O)CN(C)C(=O)[C@H](Cc2ccc(F)cc2)N2CCCCC[C@@H](C2=O)N(C)C(=O)CN(C)C1=O [PP0959],B (a compound having 3 or more and less than 10 is denoted as B),B (a compound having 3 or more and less than 10 is denoted as B)
CC[C@H](C)[C@@H]1NC(=O)[C@H](COC)N(C)C(=O)C[C@@H](C(=O)N2CCOCC2)N(C)C(=O)[C@H](C2CCCC2)N(C)C(=O)C2(CCCC2)NC(=O)[C@@H]2CCCN2C(=O)[C@H](CCc2ccc(C(F)(F)F)c(Cl)c2)NC(=O)CN(C)C(=O)[C@H](Cc2ccc(F)cc2)N2CCCCC[C@@H](C2=O)N(C)C(=O)CN(C)C1=O [PP0960],B (a compound having 3 or more and less than 10 is denoted as B),B (a compound having 3 or more and less than 10 is denoted as B)
CC[C@H](C)[C@@H]1NC(=O)[C@H](Cc2ccccc2)N(C)C(=O)C[C@@H](C(=O)N2CCOCC2)N(C)C(=O)[C@H](C2CCCC2)N(C)C(=O)C2(CCCC2)NC(=O)[C@@H]2CCCN2C(=O)[C@H](CCc2ccc(C(F)(F)F)c(Cl)c2)NC(=O)CN(C)C(=O)[C@H](Cc2ccc(F)cc2)N2CCCCC[C@@H](C2=O)N(C)C(=O)CN(C)C1=O [PP0961],B (a compound having 3 or more and less than 10 is denoted as B),B (a compound having 3 or more and less than 10 is denoted as B)
CC[C@H](C)[C@@H]1NC(=O)[C@H](Cc2cccc(F)c2)N(C)C(=O)C[C@@H](C(=O)N2CCOCC2)N(C)C(=O)[C@H](C2CCCC2)N(C)C(=O)C2(CCCC2)NC(=O)[C@@H]2CCCN2C(=O)[C@H](CCc2ccc(C(F)(F)F)c(Cl)c2)NC(=O)CN(C)C(=O)[C@H](Cc2ccc(F)cc2)N2CCCCC[C@@H](C2=O)N(C)C(=O)CN(C)C1=O [PP0962],B (a compound having 3 or more and less than 10 is denoted as B),B (a compound having 3 or more and less than 10 is denoted as B)
CC[C@H](C)[C@@H]1NC(=O)[C@H](Cc2cccc(Cl)c2)N(C)C(=O)C[C@@H](C(=O)N2CCOCC2)N(C)C(=O)[C@H](C2CCCC2)N(C)C(=O)C2(CCCC2)NC(=O)[C@@H]2CCCN2C(=O)[C@H](CCc2ccc(C(F)(F)F)c(Cl)c2)NC(=O)CN(C)C(=O)[C@H](Cc2ccc(F)cc2)N2CCCCC[C@@H](C2=O)N(C)C(=O)CN(C)C1=O [PP0963],B (a compound having 3 or more and less than 10 is denoted as B),B (a compound having 3 or more and less than 10 is denoted as B)
CC[C@H](C)[C@@H]1NC(=O)[C@H](CC(C)C)N(C)C(=O)C[C@@H](C(=O)N2CCOCC2)N(C)C(=O)[C@H](C2CCCC2)N(C)C(=O)C2(CCCC2)NC(=O)[C@@H]2CCCN2C(=O)[C@H](CCc2cc(F)c(C(F)(F)F)c(F)c2)NC(=O)CN(C)C(=O)[C@H](Cc2ccc(F)cc2)N2CCCCC[C@@H](C2=O)N(C)C(=O)CN(C)C1=O [PP0964],B (a compound having 3 or more and less than 10 is denoted as B),B (a compound having 3 or more and less than 10 is denoted as B)
CCO[C@@H]1C[C@H]2C(=O)NC3(CCCC3)C(=O)N(C)[C@@H](C3CCCC3)C(=O)N(C)[C@H](C(=O)N3CCOCC3)CC(=O)N(C)[C@@H](CC(C)C)C(=O)N[C@@H]([C@@H](C)CC)C(=O)N(C)CC(=O)N(C)[C@H]3CCCCCN(C3=O)[C@@H](Cc3ccc(F)cc3)C(=O)N(C)CC(=O)N[C@@H](CCc3ccc(C(F)(F)F)c(Cl)c3)C(=O)N2C1 [PP0965],B (a compound having 3 or more and less than 10 is denoted as B),B (a compound having 3 or more and less than 10 is denoted as B)
CC[C@H](C)[C@@H]1NC(=O)[C@H](CC(C)C)N(C)C(=O)C[C@@H](C(=O)N2CCOCC2)N(C)C(=O)[C@H](C2CCCC2)N(C)C(=O)C2(CCCC2)NC(=O)[C@@H]2CC(F)(F)CN2C(=O)[C@H](CCc2ccc(C(F)(F)F)c(Cl)c2)NC(=O)CN(C)C(=O)[C@H](Cc2ccc(F)cc2)N2CCCCC[C@@H](C2=O)N(C)C(=O)CN(C)C1=O [PP0966],B (a compound having 3 or more and less than 10 is denoted as B),B (a compound having 3 or more and less than 10 is denoted as B)
CC[C@H](C)[C@@H]1NC(=O)[C@H](CC(C)C)N(C)C(=O)C[C@@H](C(=O)N2CCOCC2)N(C)C(=O)[C@H](C2CCCC2)N(C)C(=O)C2(CCC2)NC(=O)[C@@H]2CCCN2C(=O)[C@H](CCc2ccc(C(F)(F)F)c(Cl)c2)NC(=O)CN(C)C(=O)[C@H](Cc2ccc(F)cc2)N2CCCCC[C@@H](C2=O)N(C)C(=O)CN(C)C1=O [PP0967],B (a compound having 3 or more and less than 10 is denoted as B),B (a compound having 3 or more and less than 10 is denoted as B)
CCO[C@@H]1C[C@H]2C(=O)NC3(CCC3)C(=O)N(C)[C@@H](C3CCCC3)C(=O)N(C)[C@H](C(=O)N3CCOCC3)CC(=O)N(C)[C@@H](CC(C)C)C(=O)N[C@@H]([C@@H](C)CC)C(=O)N(C)CC(=O)N(C)[C@H]3CCCCCN(C3=O)[C@@H](Cc3ccc(F)cc3)C(=O)N(C)CC(=O)N[C@@H](CCc3ccc(C(F)(F)F)c(Cl)c3)C(=O)N2C1 [PP0968],B (a compound having 3 or more and less than 10 is denoted as B),B (a compound having 3 or more and less than 10 is denoted as B)
CC[C@H](C)[C@@H]1NC(=O)[C@H](CC(C)C)N(C)C(=O)C[C@@H](C(=O)N2CCOCC2)N(C)C(=O)[C@H](C2CCCC2)N(C)C(=O)C2(CCC2)NC(=O)[C@@H]2CC(F)(F)CN2C(=O)[C@H](CCc2ccc(C(F)(F)F)c(Cl)c2)NC(=O)CN(C)C(=O)[C@H](Cc2ccc(F)cc2)N2CCCCC[C@@H](C2=O)N(C)C(=O)CN(C)C1=O [PP0969],B (a compound having 3 or more and less than 10 is denoted as B),B (a compound having 3 or more and less than 10 is denoted as B)
CC[C@H](C)[C@@H]1NC(=O)[C@H](CC(C)C)N(C)C(=O)C[C@@H](C(=O)N2CCOCC2)N(CC)C(=O)[C@H](C2CCCC2)N(C)C(=O)C2(CCCC2)NC(=O)[C@@H]2CCCN2C(=O)[C@H](CCc2ccc(C(F)(F)F)c(Cl)c2)NC(=O)CN(C)C(=O)[C@H](Cc2ccc(F)cc2)N2CCCCC[C@@H](C2=O)N(C)C(=O)CN(C)C1=O [PP0970],B (a compound having 3 or more and less than 10 is denoted as B),B (a compound having 3 or more and less than 10 is denoted as B)
CC[C@H](C)[C@@H]1NC(=O)[C@H](CC(C)C)N(C)C(=O)C[C@@H](C(=O)N(C)C)N(C)C(=O)[C@H](C2CCCC2)N(C)C(=O)C2(CCCC2)NC(=O)[C@@H]2CCCN2C(=O)[C@H](CCc2ccc(C(F)(F)F)c(Cl)c2)NC(=O)CN(C)C(=O)[C@H](Cc2ccc(F)cc2)N2CCCCC[C@@H](C2=O)N(C)C(=O)CN(C)C1=O [PP0971],B (a compound having 3 or more and less than 10 is denoted as B),B (a compound having 3 or more and less than 10 is denoted as B)
